Laboratory results published in PMC12171682, “Saarvienin A—A Novel Glycopeptide with Potent Activity against Drug‐Resistant Bacteria” (Angewandte Chemie (International Ed. in English), 2025).
Converted amounts (≈) assume the structure as drawn. Where two headings read alike, the source gives them in different places.

Experiments:
[1] = test system: vancomycin‐resistant E. faecium clinical isolates with reduced susceptibility to daptomycin (n = 26); assay: microbe, parasite or virus in culture; conditions: Enterococcus faecium; for MIC: 24 h; for MIC50 / MIC90: VRE
E. faecalis ATCC 29212 = assay: microbe, parasite or virus in culture; conditions: Enterococcus faecalis, ATCC29212, 24 h, read-out: MIC, E. faecalis ATCC29212
[2] = test system: vancomycin‐resistant E. faecium clinical isolates with reduced susceptibility to daptomycin (n = 26); conditions: 26 VRE E. faecium clinical isolates; broth microdilution, MHB II; daptomycin with 50 µg/mL Ca2+; mean of two independent experiments
[3] = read-out: MIC, Enterococcus faecium isolate 1
[4] = read-out: MIC, Enterococcus faecium isolate 2
[5] = read-out: MIC, Enterococcus faecium isolate 3
[6] = read-out: MIC, Enterococcus faecium isolate 4
[7] = read-out: MIC, Enterococcus faecium isolate 5
[8] = read-out: MIC, Enterococcus faecium isolate 6
[9] = read-out: MIC, Enterococcus faecium isolate 7
[10] = read-out: MIC, Enterococcus faecium isolate 8
[11] = read-out: MIC, Enterococcus faecium isolate 9
[12] = read-out: MIC, Enterococcus faecium isolate 10
[13] = read-out: MIC, Enterococcus faecium isolate 11
[14] = read-out: MIC, Enterococcus faecium isolate 12
[15] = read-out: MIC, Enterococcus faecium isolate 13
[16] = read-out: MIC, Enterococcus faecium isolate 14
[17] = read-out: MIC, Enterococcus faecium isolate 15
[18] = read-out: MIC, Enterococcus faecium isolate 16
[19] = read-out: MIC, Enterococcus faecium isolate 17
[20] = read-out: MIC, Enterococcus faecium isolate 18
[21] = read-out: MIC, Enterococcus faecium isolate 19
[22] = read-out: MIC, Enterococcus faecium isolate 20
[23] = read-out: MIC, Enterococcus faecium isolate 21
[24] = read-out: MIC, Enterococcus faecium isolate 22
[25] = read-out: MIC, Enterococcus faecium isolate 23
[26] = read-out: MIC, Enterococcus faecium isolate 24
[27] = read-out: MIC, Enterococcus faecium isolate 25
[28] = read-out: MIC, Enterococcus faecium isolate 26

Compound | MIC [1, 3] [µg/mL] | MIC [1, 4] [µg/mL] | MIC [1, 5] [µg/mL] | MIC [1, 6] [µg/mL] | MIC [1, 7] [µg/mL] | MIC [1, 8] [µg/mL] | MIC [1, 9] [µg/mL] | MIC [1, 10] [µg/mL] | MIC [1, 11] [µg/mL] | MIC [1, 12] [µg/mL] | MIC [1, 13] [µg/mL] | MIC [1, 14] [µg/mL] | MIC [1, 15] [µg/mL] | MIC [1, 16] [µg/mL] | MIC [1, 17] [µg/mL] | MIC [1, 18] [µg/mL] | MIC [1, 19] [µg/mL] | MIC [1, 20] [µg/mL] | MIC [1, 21] [µg/mL] | MIC [1, 22] [µg/mL] | also measured
CNC(C)C1CCC(N)C(OC2C(N)CC(N)C(OC3OCC(C)(O)C(NC)C3O)C2O)O1 (stereo not shown) [Gentamicin] | > 64 | > 64 | 64 (≈ 134 µM) | > 64 | > 64 | > 64 | > 64 | > 64 | > 64 | > 64 | > 64 | > 64 | > 64 | > 64 | > 64 | > 64 | > 64 | > 64 | > 64 | > 64 | MIC [1, 23]: > 64 µg/mL; MIC [1, 24]: > 64 µg/mL; MIC [1, 25]: > 64 µg/mL; MIC [1, 26]: > 64 µg/mL; MIC [1, 27]: > 64 µg/mL; MIC [1, 28]: > 64 µg/mL; MIC50 [1]: > 64 µg/mL; MIC90 [1]: > 64 µg/mL; MIC (E. faecalis ATCC 29212): 8 µg/mL (≈ 16.8 µM)
CC1(C)S[C@@H]2[C@H](NC(=O)[C@H](N)c3ccccc3)C(=O)N2[C@H]1C(=O)O [Ampicillin] | > 64 | > 64 | 64 (≈ 183 µM) | > 64 | > 64 | > 64 | > 64 | > 64 | > 64 | > 64 | > 64 | > 64 | > 64 | > 64 | > 64 | > 64 | > 64 | > 64 | > 64 | > 64 | MIC [1, 23]: > 64 µg/mL; MIC [1, 24]: > 64 µg/mL; MIC [1, 25]: > 64 µg/mL; MIC [1, 26]: > 64 µg/mL; MIC [1, 27]: > 64 µg/mL; MIC [1, 28]: > 64 µg/mL; MIC50 [1]: > 64 µg/mL; MIC90 [1]: > 64 µg/mL; MIC (E. faecalis ATCC 29212): 2 µg/mL (≈ 5.72 µM)
CC(=O)NC[C@H]1CN(c2ccc(N3CCOCC3)c(F)c2)C(=O)O1 [Linezolid] | 2 (≈ 5.93 µM) | 2 (≈ 5.93 µM) | 4 (≈ 11.9 µM) | 2 (≈ 5.93 µM) | 4 (≈ 11.9 µM) | 4 (≈ 11.9 µM) | 2 (≈ 5.93 µM) | 2 (≈ 5.93 µM) | 2 (≈ 5.93 µM) | 2 (≈ 5.93 µM) | 2 (≈ 5.93 µM) | 4 (≈ 11.9 µM) | 4 (≈ 11.9 µM) | 4 (≈ 11.9 µM) | 4 (≈ 11.9 µM) | 4 (≈ 11.9 µM) | 2 (≈ 5.93 µM) | 4 (≈ 11.9 µM) | 4 (≈ 11.9 µM) | 2 (≈ 5.93 µM) | MIC Range [2]: 2 to 4 µg/mL; MIC [1, 23]: 2 µg/mL (≈ 5.93 µM); MIC [1, 24]: 4 µg/mL (≈ 11.9 µM); MIC [1, 25]: 4 µg/mL (≈ 11.9 µM); MIC [1, 26]: 4 µg/mL (≈ 11.9 µM); MIC [1, 27]: 4 µg/mL (≈ 11.9 µM); MIC [1, 28]: 2 µg/mL (≈ 5.93 µM); MIC50 [1]: 4 µg/mL (≈ 11.9 µM); MIC90 [1]: 4 µg/mL (≈ 11.9 µM); MIC (E. faecalis ATCC 29212): 2 µg/mL (≈ 5.93 µM)
